Assay results taken from patent US7223776B2, “Compounds with anti-bacterial activity” (priority 2002, dated 2007).

assay: Anti-bacterial activity: MHK measured against a panel of bacterial strains; format: cell-based; conditions: in relation to at least one of the listed strains (strain not specified); read-out: MHK
Method: The MHK (μg/ml) of those compounds was measured in relation to the following bacterial strains: S. aureus ATCC 29213, S. aureus 16, E. faecalis ATCC 29212, E. faecium vanA E25-1, H. influenzae 11, E. coli ATCC 25922, M. catarrhalis 117, S. pneumoniae ATCC 49619. Examples 5–6, 8, 11–16, 18–26, 30, 44–45, 47–58 have an MHK<=0.125 in relation to at least one of the listed strains.

| Compound | MIC [µg/mL] |
| --- | --- |
| COc1ccc2nccc(CCC3CCC(NCc4ccc5c(c4)NC(=O)CO5)CC3)c2c1 (stereo not shown) [Example 30, 6-({4-[2-(6-Methoxy-quinolin-4-yl)-ethyl]-cyclohexylamino}-methyl)-4H-benzo[1,4]oxazin-3-one] | ≤ 0.125 |
| COc1ccc2ncnc(OCC3CCC(NCc4cnc5ccccc5n4)CC3)c2c1 (stereo not shown) [Example 43, [4-(6-Methoxy-quinazolin-4-yloxymethyl)-cyclohexyl]-quinoxalin-2-ylmethyl-amine] | ≤ 0.5 |
| COc1ccc2ncnc(OCC3CCC(NCc4ccc5c(c4)NC(=O)CO5)CC3)c2c1 (stereo not shown) [Example 44, 6-{[4-(6-Methoxy-quinazolin-4-yloxymethyl)-cyclohexylamino]-methyl}-4H-benzo[1,4]oxazin-3-one] | ≤ 0.125 |
| COc1ccc2nccc(C(O)CN3CCC[C@@H](CNCc4ccc5nsnc5c4)C3)c2c1 (mixture of isomers) [Example 6, (3S)-2-(3-{[(Benzo[1,2,5]thiadiazol-5-ylmethyl)-amino]-methyl}-piperidin-1-yl)-(1RS)-(6-methoxy-quinolin-4-yl)-ethanol] | ≤ 0.125 |
| COc1ccc2nccc(C(O)CN3CCC[C@@H](CNCc4ccc5c(c4)OCCCO5)C3)c2c1 (mixture of isomers) [Example 7] | ≤ 0.5 |
| COc1ccc2nccc(C(O)CN3CCOC(CNCc4ccc5c(c4)OCCO5)C3)c2c1 (racemic) [Example 61, 2-((2RS)-{[(2,3-Dihydro-benzo[1,4]dioxin-6-ylmethyl)-amino]-methyl}-morpholin-4-yl)-(1RS)-(6-methoxy-quinolin-4-yl)-ethanol] | ≤ 0.5 |
| COc1ccc2ncnc(OCC3CCC(NCC(=O)Nc4ccccn4)CC3)c2c1 (stereo not shown) [Example 46, 2-[4-(6-Methoxy-quinazolin-4-yloxymethyl)-cyclohexylamino]-N-pyridin-2-yl-acetamide] | ≤ 0.5 |
| COc1ccc2nccc(C(O)CN3CCC[C@@H](CNCc4ccc5c(c4)OCO5)C3)c2c1 (mixture of isomers) [Example 9, 2-((3S)-{[(2,3-Dihydro-benzo[1,3]dioxo-6-ylmethyl)-amino]-methyl}-piperidin-1-yl)-(1RS)-(6-methoxy-quinolin-4-yl)-ethanol] | ≤ 0.5 |
| COc1ccc2nccc(C(O)CN3CCCC(NCc4ccc5c(c4)OCCO5)CC3)c2c1 (racemic) [Example 34] | ≤ 0.5 |
| COc1ccc2ncnc(OCC3CCC(NCc4ccc5c(c4)OCCO5)CC3)c2c1 (stereo not shown) [Example 42, (2,3-Dihydro-benzo[1,4]dioxin-6-ylmethyl)-[4-(6-methoxy-quinazolin-4-yloxymethyl)-cyclohexyl]-amine] | ≤ 0.5 |
| COc1ccc2ncnc(OCC3CCC(NC/C=C/c4ccccc4)CC3)c2c1 (stereo not shown) [Example 45, [4-(6-Methoxy-quinazolin-4-yloxymethyl)-cyclohexyl]-(3-phenyl-allyl)-amine] | ≤ 0.125 |
| COc1ccc2nccc(C(O)CN3CCC[C@@H](CNCc4ccc5c(c4)NC(=O)CO5)C3)c2c1 (mixture of isomers) [Example 5, (3S)-6-[({1-[2-Hydroxy-2-(6-methoxy-quinolin-4-yl)-ethyl]-piperidin-(3RS)-ylmethyl}-amino)-methyl]-4H-benzo[1,4]oxazin-3-one] | ≤ 0.125 |
| COc1ccc2nccc(C(O)CN3CCC=C(CNCc4ccc5c(c4)OCCO5)C3)c2c1 (stereo not shown) [Example 59, 2-(5-{[(2,3-Dihydro-benzo[1,4]dioxin-6-ylmethyl)-amino]-methyl}-3,6-dihydro-2H-pyridin-1-yl)-1-(6-methoxy-quinolin-4-yl)-ethanol] | ≤ 0.5 |

same assay, conditions: read-out: MHK

| Compound | MIC [µg/mL] |
| --- | --- |
| CCOc1ccc2nccc(CCC3(O)CCC(NCc4ccc5c(c4)OCO5)CC3)c2c1 (stereo not shown) [Example 17] | ≤ 0.5 |
| COc1ccc2nccc([C@@H](O)CN3CCC[C@@H](CNCc4ccc5c(c4)OCCO5)C3)c2c1 [Example 8, 2-((3S)-{[(2,3-Dihydro-benzo[1,4]dioxin-6-ylmethyl)-amino]-methyl}-piperidin-1-yl)-(1S)-(6-methoxy-quinolin-4-yl)-ethanol] | ≤ 0.125 |
| COc1ccc2ncnc(CCC3(O)CCC(NCc4ccc5c(c4)OCO5)CC3)c2c1 (stereo not shown) [Example 10, 4-[(Benzo[1.3]dioxol-5-ylmethyl)-amino]-1-[2-(6-methoxy-quinazolin-4-yl)-ethyl]-cyclohexanol] | ≤ 0.5 |
